Experimental data as given in patent publication US12398141B2 (SHANGHAI SYNERGY PHARMACEUTICAL SCIENCES CO., LTD, priority 2019, dated 2025).

How the values were obtained:
Blast T cell = assay: Cell proliferation test of IL-2 stimulated Blast T cell; format: cell-based; conditions: Homo sapiens; IL-2 stimulated Blast T cell proliferation, 72 hours
Protocol: Inhibiting test of the compounds of the invention on proliferation of Blast T cell and TF-1 cell (American type culture collection) was carried out by the following method. The tested compounds […], and […] were dissolved in dimethyl sulfoxide from 0.0006 to 10 μM in quadruplicate dilutions. […] 10 μg/ml […] was added to stimulate and obtain cells with a density of 2×10^6/mL, which were incubated for 3 days. The cells were washed with phosphate buffer for three times and IL-2 (100 u/ml) was added to stimulate for 1 week. Cells were suspended using the culture medium and seeded at 5×10^4 cell/well density into 96-well plates, and incubated for 1 h with the prepared test compound or DMSO control at various concentrations from 0.0006 to 10 μM diluted by 4-fold volume. After incubation with 20 u/ml of IL-2 (50 μl/well without reference well) for 72 hours, Celltiter Glo® reagent (Promega, G7571) was added and mixed for 5 minutes, then incubated for 30 minutes at room temperature. The luminescence value was read on SpectraMax L (Molecular Device). […] The IC50 values of the corresponding compounds were then obtained by fitting by using the XLFit fitting tool in excel.

TF-1 cell = TF-1 cell proliferation test; format: cell-based; conditions: Homo sapiens, 72 h
Protocol: Inhibiting test of the compounds of the invention on proliferation of Blast T cell and TF-1 cell (American type culture collection) was carried out by the following method. The tested compounds […], and […] were dissolved in dimethyl sulfoxide from 0.0006 to 10 μM in quadruplicate dilutions. […] The luminescence value was read on Microplate Reader (Molecular Device). […] The IC50 values of the corresponding compounds were then obtained by fitting by using the XLFit fitting tool in excel.

male ICR mice = assay: Carrageenan-induced paw swelling in mice; format: in vivo; conditions: 10 mg/kg intragastric
Protocol: (§1) The inhibiting effects of compounds H01, H07, H11, H12, H14, H15, H22, H25, H29, H30, H33, H39 and H44 on paw swelling in mice were determined after intragastric administration by using male ICR mice (ShanghaiSippr-BK laboratory animal Co. Ltd.), aged 8 weeks and weighing 22-24 g as test animals. The anti-inflammatory pharmacodynamics characteristic of the compounds of the invention was discussed.
A certain amount of compounds were taken and dissolved in 4% Tween 80/0.5% hydroxy propyl methyl cellulose solution. A volume of intragastric administration in mice was 10 ml/kg.
Mice were given 10 mg/kg compounds H01, H07, H11, H12, H14, H15, H22, H25, H29, H30, H33, H39, and H44 and the positive drug indomethacin (Diamond Reagent Co., Ltd., China) by intragastric administration at the dosages shown in the table below and 20 μL 1% (W/V) carrageenan was injected subcutaneously into the plantar 0.5 h later. A paw volume was measured with a paw swelling meter before and at different time points after modeling (0.5 h, 1 h and 2 h). According to the formula: paw swelling rate=(paw volume after administration−basic paw volume)/basic paw volume×100, the inhibiting effect of the compounds on paw volume was calculated. The basic paw volume was a paw volume before administration.

Sprague-Dawley (SD) mice = assay: Concanavalin-induced paw swelling in mice; format: in vivo; conditions: 10 mg/kg intragastric
Protocol: as §1, with “H13,” for “H01, H07, H11, H12,”, “H09, H11” for “H15, H22, H25, H29, H30, H33, H39”, “compounds of Example 12” for “H44”, “Sprague-Dawley (SD)” for “male ICR”, “6-7” for “8”, “160-180” for “22-24”
A certain amount of compounds were taken and dissolved in 4% Tween 80/0.5% hydroxy propyl methyl cellulose solution.
Mice were given compounds H01, H07, H11, H12, H14, H15, H22, H25, H29, H30, H33, H39, and H44 and the positive drug indomethacin (Diamond Reagent Co., Ltd., China) by intragastric administration at the dosages shown in the table below and 0.1 ml 0.03% (W/V) concanavalin was injected subcutaneously into the plantar 0.5 h later. A paw volume was measured with a paw swelling meter before modeling and 1 h, 2 h, 4 h and 6 h after modeling. According to the formula: paw swelling rate=(paw volume after administration−basic paw volume)/basic paw volume×100, the inhibiting effect of the compounds on paw volume was calculated. The basic paw volume was a paw volume before administration.

[1] = Pharmacokinetic test after intragastric administration; format: in vivo; conditions: Sprague-Dawley, mouse, plasma, po, SD mice, 5 mg/kg intragastric
Protocol: Drug concentrations of compounds H01, H07, H11, H12, H14, H15, H22, H25, H29, H30, H33, H39 and H44 intragastrically administrated in plasma by using LC/MS/MS method at various time points were determined by using Sprague-Dawley (SD) […], aged 7-8 weeks and weighing […] as test animals. Pharmacokinetic behavior of the compounds of the invention in […] was studied and its pharmacokinetic characteristics were evaluated.
A certain amount of compounds was taken and dissolved in 50% PEG400/water to prepare a uniform solution.
Mice were administered intragastrically with the above compounds with a dosage of 5 mg/kg. Blood (0.2 ml) was taken from orbits before administration and 0.083 h, 0.25 h, 0.5 h, 1.0 h, 2.0 h, 4.0 h, 6.0 h, 8.0 h, 12.0 h and 24.0 h after administration. The blood was placed in anticoagulant tubes containing dipotassium ethylene glycol diethyl ether diamine tetraacetic acid, centrifugated at 6000 rpm at 4° C. for 10 minutes to separate plasma and saved at −80° C.
50 μL plasma at various time was taken and 150 μL acetonitrile solution containing internal standard tolbutamide (Sigma, USA) was added, mixed and stirred for 5 minutes. After centrifugation for 5 minutes at 12,000 rpm, 100 μL supernatant was taken, mixed with 200 μL water, following by sample injection and analysis.
Liquid chromatogram system was LC-20AD UFLC High Performance Liquid Chromatography system. Mass spectrum system was AB Sciex API4000 triple quadrupole mass spectrometer equipped with Electron Spray Ionization (ESI) (Applied Biosystems, Canada). A software for controlling liquid chromatography-mass spectrometry and quantitative analysis was Anna Rust 1.6 (Applied Biosystems, Canada). Pharmacokinetic parameters were analyzed by WinNonlin (version 5.2, Pharsight, Mountain View, […]) non-compartment model.
The test compound was dissolved in dimethyl sulfoxide to prepare a stock solution with a concentration of 1 mg/mL. The solution was diluted with 50% acetonitrile to obtain a series of standard working solutions with concentrations of 10 μg/mL, 3 μg/mL, 1 μg/mL, 0.3 μg/mL, 0.1 μg/mL, 0.03 μg/mL and 0.01 μg/mL, and a series of standard quality control solutions with concentrations of 8 μg/mL, 0.5 μg/mL, 0.03 μg/mL. 5 μL standard solution was mixed with 45 μL blank plasma substrate uniformly to obtain standard solutions of each concentration of a standard curve (1000 ng/mL, 500 ng/mL, 200 ng/mL, 100 ng/mL, 10 ng/mL, 5 ng/mL, 2 and 1 ng/mL) and quality control solutions (plasma samples: 800 ng/mL, 50 and 3 ng/mL).
Internal standard tolbutamide solid powder was dissolved in dimethyl sulfoxide to prepare a 1 mg/mL stock solution. The stock solution was diluted with 100% acetonitrile to obtain 200 ng/mL solution as a protein precipitation solution.

JAK1 = JAK1 (Homo sapiens (Human), UniProt P23458); assay: JAK1 LANCE Ultra kinase assay; format: biochemical; conditions: for IC50: 38 uM ATP; for JAK2/JAK1: ratio of IC50 JAK2 to IC50 JAK1
Chain of JAK1 (P23458 whole entry): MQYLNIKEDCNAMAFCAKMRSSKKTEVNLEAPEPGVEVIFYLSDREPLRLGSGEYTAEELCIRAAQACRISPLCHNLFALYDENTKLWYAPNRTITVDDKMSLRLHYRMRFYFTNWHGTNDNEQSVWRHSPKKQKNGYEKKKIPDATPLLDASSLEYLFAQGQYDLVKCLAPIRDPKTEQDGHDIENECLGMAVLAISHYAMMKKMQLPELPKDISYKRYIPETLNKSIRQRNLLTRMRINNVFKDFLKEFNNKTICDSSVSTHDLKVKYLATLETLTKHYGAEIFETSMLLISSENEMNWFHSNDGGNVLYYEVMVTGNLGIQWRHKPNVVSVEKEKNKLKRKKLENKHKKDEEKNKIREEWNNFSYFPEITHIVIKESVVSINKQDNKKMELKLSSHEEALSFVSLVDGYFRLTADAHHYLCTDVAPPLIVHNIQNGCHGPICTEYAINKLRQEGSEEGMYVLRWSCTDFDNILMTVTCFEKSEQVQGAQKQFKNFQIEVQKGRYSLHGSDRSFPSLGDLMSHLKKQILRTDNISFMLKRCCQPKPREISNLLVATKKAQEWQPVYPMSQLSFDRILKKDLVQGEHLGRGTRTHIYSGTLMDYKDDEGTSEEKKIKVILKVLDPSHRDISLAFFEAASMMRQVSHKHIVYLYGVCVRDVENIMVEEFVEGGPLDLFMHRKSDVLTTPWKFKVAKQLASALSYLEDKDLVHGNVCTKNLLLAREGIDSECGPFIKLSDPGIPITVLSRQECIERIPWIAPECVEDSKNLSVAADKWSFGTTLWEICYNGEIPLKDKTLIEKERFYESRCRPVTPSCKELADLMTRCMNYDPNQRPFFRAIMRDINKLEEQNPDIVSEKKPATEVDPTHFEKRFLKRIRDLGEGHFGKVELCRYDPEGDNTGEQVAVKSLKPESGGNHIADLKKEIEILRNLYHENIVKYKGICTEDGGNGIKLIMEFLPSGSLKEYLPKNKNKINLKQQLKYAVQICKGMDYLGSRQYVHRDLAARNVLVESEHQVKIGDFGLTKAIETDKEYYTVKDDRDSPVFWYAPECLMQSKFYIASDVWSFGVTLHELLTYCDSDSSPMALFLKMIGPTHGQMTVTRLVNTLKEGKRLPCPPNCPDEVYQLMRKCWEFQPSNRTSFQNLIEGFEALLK
Method in brief: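 JAK1 preincubated with compound 10 min at room temperature, then ULight-JAK-1 peptide/ATP added for 90 min at room temperature; stopped with EDTA, Eu-W1024 anti-phosphotyrosine TR-FRET read after 60 min. Inhibition normalised to DMSO and blank wells; IC50 from curve fit.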

JAK2 = JAK2 (Homo sapiens (Human), UniProt O60674); assay: JAK2 LANCE Ultra kinase assay; format: biochemical; conditions: 12 uM ATP
Chain of JAK2 (O60674 whole entry): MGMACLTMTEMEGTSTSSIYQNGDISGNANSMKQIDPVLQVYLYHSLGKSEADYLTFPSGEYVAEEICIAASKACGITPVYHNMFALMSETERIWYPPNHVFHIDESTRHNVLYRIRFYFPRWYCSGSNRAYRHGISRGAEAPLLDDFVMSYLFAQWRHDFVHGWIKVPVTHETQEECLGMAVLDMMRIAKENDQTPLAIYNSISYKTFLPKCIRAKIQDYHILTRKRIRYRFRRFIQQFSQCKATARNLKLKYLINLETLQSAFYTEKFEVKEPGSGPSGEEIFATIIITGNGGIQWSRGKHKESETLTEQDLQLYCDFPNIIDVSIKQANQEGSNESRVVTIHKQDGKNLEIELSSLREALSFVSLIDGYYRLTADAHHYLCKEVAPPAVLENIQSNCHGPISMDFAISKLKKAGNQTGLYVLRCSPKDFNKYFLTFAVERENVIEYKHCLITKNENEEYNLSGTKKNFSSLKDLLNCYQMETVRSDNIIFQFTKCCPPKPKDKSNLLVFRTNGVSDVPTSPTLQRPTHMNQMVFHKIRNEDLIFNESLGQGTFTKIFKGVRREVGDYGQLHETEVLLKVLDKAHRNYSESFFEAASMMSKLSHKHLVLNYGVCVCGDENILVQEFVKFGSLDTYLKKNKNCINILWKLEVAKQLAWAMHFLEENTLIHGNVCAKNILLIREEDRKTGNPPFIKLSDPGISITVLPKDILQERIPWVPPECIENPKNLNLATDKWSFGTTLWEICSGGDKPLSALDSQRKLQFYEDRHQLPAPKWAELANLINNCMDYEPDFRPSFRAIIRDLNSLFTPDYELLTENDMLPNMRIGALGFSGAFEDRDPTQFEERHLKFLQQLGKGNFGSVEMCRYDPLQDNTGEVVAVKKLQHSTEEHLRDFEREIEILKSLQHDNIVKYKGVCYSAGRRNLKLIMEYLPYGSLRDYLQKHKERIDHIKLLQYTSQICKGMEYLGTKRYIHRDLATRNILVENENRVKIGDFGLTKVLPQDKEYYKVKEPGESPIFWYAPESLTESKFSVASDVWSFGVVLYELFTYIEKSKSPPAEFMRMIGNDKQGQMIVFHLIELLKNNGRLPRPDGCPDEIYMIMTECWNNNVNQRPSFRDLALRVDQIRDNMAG

JAK3 = JAK3 (Homo sapiens (Human), UniProt P52333); assay: JAK3 LANCE Ultra kinase assay; format: biochemical; conditions: 4 uM ATP
Chain of JAK3 (P52333 whole entry): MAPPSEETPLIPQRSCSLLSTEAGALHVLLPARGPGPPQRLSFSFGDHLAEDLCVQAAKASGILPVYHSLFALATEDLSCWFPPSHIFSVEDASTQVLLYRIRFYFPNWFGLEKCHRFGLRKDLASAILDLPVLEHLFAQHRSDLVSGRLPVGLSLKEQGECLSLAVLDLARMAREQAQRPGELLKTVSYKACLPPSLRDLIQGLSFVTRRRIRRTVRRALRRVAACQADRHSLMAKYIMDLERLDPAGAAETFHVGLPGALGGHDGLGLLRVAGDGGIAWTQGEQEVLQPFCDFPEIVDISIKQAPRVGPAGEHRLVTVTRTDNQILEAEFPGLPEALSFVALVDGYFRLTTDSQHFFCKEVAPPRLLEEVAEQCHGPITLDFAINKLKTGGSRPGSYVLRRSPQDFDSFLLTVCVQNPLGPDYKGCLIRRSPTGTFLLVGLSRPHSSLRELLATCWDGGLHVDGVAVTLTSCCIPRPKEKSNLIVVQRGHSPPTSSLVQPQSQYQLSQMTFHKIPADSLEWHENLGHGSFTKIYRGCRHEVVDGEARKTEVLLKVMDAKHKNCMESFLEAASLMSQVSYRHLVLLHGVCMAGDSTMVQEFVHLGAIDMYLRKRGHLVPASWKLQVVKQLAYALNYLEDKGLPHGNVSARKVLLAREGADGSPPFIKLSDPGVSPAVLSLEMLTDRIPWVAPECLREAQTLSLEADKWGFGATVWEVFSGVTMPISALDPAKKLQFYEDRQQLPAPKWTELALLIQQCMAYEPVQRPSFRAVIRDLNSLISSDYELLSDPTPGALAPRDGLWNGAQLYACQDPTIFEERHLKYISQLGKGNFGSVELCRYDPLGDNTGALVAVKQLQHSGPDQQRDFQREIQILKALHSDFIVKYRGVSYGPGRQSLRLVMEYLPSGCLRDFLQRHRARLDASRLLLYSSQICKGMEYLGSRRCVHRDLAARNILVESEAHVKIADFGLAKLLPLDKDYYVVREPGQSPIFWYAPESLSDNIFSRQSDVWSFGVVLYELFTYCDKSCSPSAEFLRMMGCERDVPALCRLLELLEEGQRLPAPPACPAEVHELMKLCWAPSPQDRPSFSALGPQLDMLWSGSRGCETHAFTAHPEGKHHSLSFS

| SMILES | AUC(0-t) ([1]; read-out: Area under the curve (AUC0-24, ng/ml · h)) [µg·h/mL] | Cmax ([1]; read-out: Plasma concentration (Cmax, ng/ml)) [ng/mL] | half-life ([1]; read-out: half life (T1/2, h) (converted)) [h] | IC50 (JAK1) [nM] | IC50 (JAK2) [nM] | IC50 (JAK3) [nM] | JAK2/JAK1 (JAK1) | IC50 (Blast T cell) [µM] | IC50 (TF-1 cell) [µM] | Paw swelling_0.5 h (%) (male ICR mice; 0.5 h) | Paw swelling rate_1 h (%) (male ICR mice; 1 h) | Paw swelling rate_2 h (%) (male ICR mice; 2 h) | Paw swelling rate_1 h (%) (Sprague-Dawley (SD) mice; 1 h) | Paw swelling rate_2 h (%) (Sprague-Dawley (SD) mice; 2 h) | Paw swelling rate_4 h (%) (Sprague-Dawley (SD) mice; 4 h) | Paw swelling rate_6 h (%) (Sprague-Dawley (SD) mice; 6 h) |
| --- | --- | --- | --- | --- | --- | --- | --- | --- | --- | --- | --- | --- | --- | --- | --- | --- |
| CC[C@@H]1CN(C(=O)NCC(F)(F)F)C[C@@H]1Nc1c(C(F)(F)F)cnc2[nH]ccc12 (relative stereo) [Compound H92, (cis)-3-ethyl-N-(2,2,2-trifluoroethyl)-4-((5-(trifluoromethyl)-1H-pyrrolo[2,3-b]pyridin-4-yl)amino)pyrrolidin-1-carboxamide] | – | – | – | 8.21 | 14.9 | 258 | 1.81 | 0.027 | 0.91 | – | – | – | – | – | – | – |
| COc1nsc(NC(=O)N2C[C@H]3C[C@H](Nc4c(C(F)(F)F)cnc5[nH]ccc45)C[C@H]3C2)n1 [Compound H50, (3aR,5s,6aS)-5-((5-trifluoromethyl-1H-pyrrolo[2,3-b]pyridin-4-yl)amino)-N-(3-methoxy-1,2,4-thiadiazole-5-yl)hexahydrocyclopentadiene[c]pyrrole-2(1H)-carboxamide] | – | – | – | 4.65 | 33 | 137 | – | 0.034 | 0.85 | – | – | – | – | – | – | – |
| CCc1nsc(NC(=O)N2C[C@H]3C[C@H](N(C)c4c(C#N)cnc5[nH]ccc45)C[C@H]3C2)n1 [Compound H08, (3aR,5s,6aS)-4-({2-[(3-ethyl-1,2,4-thiadiazole-5-yl)carbamoyl]-hexahydrocyclopenta[c]pyrrole-5-yl}-methyl-amino)-1H-pyrrolo[2,3-b]pyridin-5-carbonitrile] | – | – | – | 0.39 | 3 | 63 | 7.69 | 0.026 | 1.3 | – | – | – | – | – | – | – |
| CN(c1c(C#N)cnc2[nH]ccc12)[C@H]1C[C@@H]2CN(C(=O)Nc3nc(C4CC4)ns3)C[C@@H]2C1 [Compound H26, (3aR,5s,6aS)-5-((5-cyano-1H-pyrrolo[2,3-b]pyridin-4-yl)(methyl)amino)-N-(3-cyclopropyl-1,2,4-thiadiazole-5-yl)hexahydrocyclopentadiene[c]pyrrole-2(1H)-carboxamide] | – | – | – | 2.6 | 18 | 101 | 6.92 | 0.027 | 1.98 | – | – | – | – | – | – | – |
| CC[C@@H]1CN(C(=O)CC(F)(F)F)C[C@@H]1N(C)c1c(C#N)cnc2[nH]ccc12 (relative stereo) [Compound H03, (cis)-4-{[4-ethyl-1-(3,3,3-trifluoropropionyl)pyrrolidin-3-yl]-methyl-amino}-1H-pyrrolo[2,3-b]pyridin-5-carbonitrile] | – | – | – | 2.86 | 22 | 133 | 7.69 | 0.027 | 0.76 | – | – | – | – | – | – | – |

Continued, in another order:

| AUC(0-t) ([1]; read-out: Area under the curve (AUC0-24, ng/ml · h)) [µg·h/mL] | Cmax ([1]; read-out: Plasma concentration (Cmax, ng/ml)) [ng/mL] | half-life ([1]; read-out: half life (T1/2, h) (converted)) [h] | IC50 (JAK1) [nM] | IC50 (JAK2) [nM] | IC50 (JAK3) [nM] | JAK2/JAK1 (JAK1) | SMILES | IC50 (Blast T cell) [µM] | IC50 (TF-1 cell) [µM] | Paw swelling_0.5 h (%) (male ICR mice; 0.5 h) | Paw swelling rate_1 h (%) (male ICR mice; 1 h) | Paw swelling rate_2 h (%) (male ICR mice; 2 h) | Paw swelling rate_1 h (%) (Sprague-Dawley (SD) mice; 1 h) | Paw swelling rate_2 h (%) (Sprague-Dawley (SD) mice; 2 h) | Paw swelling rate_4 h (%) (Sprague-Dawley (SD) mice; 4 h) | Paw swelling rate_6 h (%) (Sprague-Dawley (SD) mice; 6 h) |
| --- | --- | --- | --- | --- | --- | --- | --- | --- | --- | --- | --- | --- | --- | --- | --- | --- |
| 1.72 ± 0.22 | 578 ± 72 | 2.13 ± 0.27 | – | – | – | – | CC[C@@H]1CN(C(=O)NCC(F)(F)F)CC1Nc1c(C#N)cnc2[nH]ccc12 (stereo partly shown) [Compound H01] | 0.013 | 0.67 | 33.99 ± 1.69 | 40.93 ± 1.64 | 41.56 ± 5.23 | 25.70 ± 1.50 | 25.20 ± 2.40 | 31.20 ± 3.10 | 30.20 ± 3.10 |
| – | – | – | 3.86 | 26.5 | 156 | – | CN(c1c(C#N)cnc2[nH]ccc12)[C@H]1C[C@@H](NS(=O)(=O)c2cccc(C(F)(F)F)c2)C1 [Compound H09, 4-{[3-(3-(trifluoromethyl)benzenesulfonamido)-cyclobutyl-1-yl]-methyl-amino}-1H-pyrrolo[2,3-b]pyridin-5-carbonitrile] | 0.036 | 1.56 | – | – | – | – | – | – | – |
| – | – | – | 5.47 | 15.7 | 48 | 2.86 | CC[C@@H]1CN(C(=O)NC(C)C(C)C)C[C@@H]1Nc1c(C#N)cnc2[nH]ccc12 (relative stereo) [Compound H85, (cis)-3-((5-cyano-1H-pyrrolo[2,3-b]pyridin-4-yl)amino)-4-ethyl-N-(3-methylbutane-2-yl) pyrrolidin-1-carboxamide] | 0.032 | 1.47 | – | – | – | – | – | – | – |
